A short description of series [1]: Stability in simulated gastric fluid. The series is classed as in vitro ADME. To be noted: 2 μM, 37° C., pH 1.5, pepsin; for half-life: simulated gi fluid, read-out: half-life (t1/2) in simulated gastric fluid. Here is the method:
(§1) Reactions were terminated by the addition of TFA/H2O (15 mL, 10% (v/v)). […] The column was equilibrated with TFA/H2O, at a flow rate of 1 mL/min. […] The absorbance was monitored at 206 nm using UV detector and peaks were collected manually prior to ESI-MS analysis.

For series [2], the target named is DPP IV (Homo sapiens, UniProt P27487). Put plainly: Stability against DPP IV enzyme. To be noted: 2 μM, 37° C.; for half-life: read-out: half-life (t1/2) with DPP-IV enzyme. The series is classed as in vitro ADME. Here is the method: as §1
Chain of DPP IV (P27487 whole entry, species assumed): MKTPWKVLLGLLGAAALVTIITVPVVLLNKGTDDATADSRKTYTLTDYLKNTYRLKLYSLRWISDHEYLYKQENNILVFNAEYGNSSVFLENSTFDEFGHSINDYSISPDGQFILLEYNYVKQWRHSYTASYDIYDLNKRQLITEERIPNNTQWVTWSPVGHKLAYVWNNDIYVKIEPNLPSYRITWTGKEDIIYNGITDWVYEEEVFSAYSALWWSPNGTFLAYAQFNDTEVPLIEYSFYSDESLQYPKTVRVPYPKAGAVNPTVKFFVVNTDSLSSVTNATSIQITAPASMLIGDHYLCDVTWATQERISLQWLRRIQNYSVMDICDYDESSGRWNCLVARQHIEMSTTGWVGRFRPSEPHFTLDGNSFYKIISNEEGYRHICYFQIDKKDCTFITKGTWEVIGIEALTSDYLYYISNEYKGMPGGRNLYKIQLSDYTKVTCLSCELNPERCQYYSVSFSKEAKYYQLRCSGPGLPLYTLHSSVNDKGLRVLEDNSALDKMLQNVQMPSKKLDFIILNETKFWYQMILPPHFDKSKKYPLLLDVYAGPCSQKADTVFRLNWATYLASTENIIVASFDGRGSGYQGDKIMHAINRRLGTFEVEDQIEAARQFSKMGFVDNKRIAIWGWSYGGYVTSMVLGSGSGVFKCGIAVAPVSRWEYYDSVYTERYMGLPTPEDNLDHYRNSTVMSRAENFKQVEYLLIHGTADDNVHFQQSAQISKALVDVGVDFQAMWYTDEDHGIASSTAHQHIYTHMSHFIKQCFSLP
Series [3] is described as follows: Stability in human plasma. Particulars: 2 μM, 37° C.; for half-life: human, plasma, read-out: half-life (t1/2) in human plasma. The series is classed as in vitro ADME. Here is the method: as §1
Series [4] can be described thus: Stability against liver microsomes. The series is classed as in vitro ADME, human. Particulars: 2 μM, 37° C. Here is the method: as §1
On the technique in general: Microsomes from liver hold many membrane-bound enzymes, among them those of drug oxidation.

The target in series [5] is T1, Human GLP-1 receptor (Homo sapiens, UniProt P43220).
T1 construct: The full-length cDNA was cloned in pcDNA3.1(+); expressed in transfected cells
T1 sequence (P43220 24-463): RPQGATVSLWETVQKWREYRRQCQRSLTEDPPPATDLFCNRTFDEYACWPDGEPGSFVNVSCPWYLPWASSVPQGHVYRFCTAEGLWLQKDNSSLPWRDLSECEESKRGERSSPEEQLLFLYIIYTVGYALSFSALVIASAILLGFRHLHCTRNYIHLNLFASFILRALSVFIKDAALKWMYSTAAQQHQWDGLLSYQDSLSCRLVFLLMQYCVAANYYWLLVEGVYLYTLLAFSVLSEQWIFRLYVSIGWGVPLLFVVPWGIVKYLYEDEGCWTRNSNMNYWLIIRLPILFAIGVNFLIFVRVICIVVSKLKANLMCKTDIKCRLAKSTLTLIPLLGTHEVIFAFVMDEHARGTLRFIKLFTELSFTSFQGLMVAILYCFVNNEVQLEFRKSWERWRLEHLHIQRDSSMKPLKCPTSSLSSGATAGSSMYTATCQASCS
The series is classed as cell-based. Put shortly:
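Stably transfected CHO cells expressing human GLP-1R, passages 9-25, exposed to compounds for 30 min at 37 °C. Lysed in ice-cold 0.1 N HCl; total cAMP by immunoassay, protein by micro BCA; expressed as percent of water vehicle control, mean±SD.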

The nature of series [6]: Stability in simulated intestinal fluid. The series is classed as in vitro ADME. Particulars: 2 μM, 37° C., pH 7.5; for half-life: simulated gi fluid, read-out: half-life (t1/2) in simulated intestinal fluid. Here is the method: as §1

The source of these data is US8841413B2, “Antidiabetic compounds” (Cadila Healthcare Limited, priority 2006, dated 2014).

The structures appear in SMILES notation. Where two headings read alike, the source gives them in different places.

On to `CCc1cc(OC)ccc1-c1ccc(CC(NC(=O)[C@H](CC(=O)O)NC(=O)[C@H](CO)NC(=O)[C@@H](NC(=O)C(C)(Cc2ccccc2F)NC(=O)[C@@H](NC(=O)CNC(=O)[C@H](CCC(N)=O)NC(=O)C(C)(C)NC(=O)[C@@H](N)Cc2c[nH]cn2)[C@@H](C)O)[C@@H](C)O)C(=O)NC(Cc2ccc(-c3ccccc3F)cc2)C(N)=O)cc1` (single isomer, unassigned) [compound 31], for which the “% degradation in 24 h when incubated with simulated gastric fluid” value (from here on “% degradation … with simulated gastric fluid”) in series [1] is 00%. For the same compound, the half-life in series [1], in series [2], in series [3] and in series [6] was greater than 24 h throughout. Further, the “% degradation in 24 h when incubated with DPP-IV enzyme” value (shortened to “% degradation … with DPP-IV enzyme”) in series [2] is 00%. For the same compound, the “% degradation in 24 h when incubated with human plasma” value (from here on “% degradation … with human plasma”) in series [3] is on record as 00%. For the same compound, the “half-life (t1/2) with liver microsomes” value in series [4] is on record as “(5) h”. Also, in series [4], the “% degradation in 24 h when incubated with liver microsomes” value (“% degradation … with liver microsomes” below) was 31%. In addition, the “Human GLP-1 R activity (cAMP release), % activity with respect to control” value is 93 ± 0.10% in series [5] (1 nM test compound); 99 ± 0.46% in series [5] (10 nM test compound); 99 ± 0.41% in series [5] (100 nM test compound); 99 ± 0.66% in series [5] (1 μM test compound); 99 ± 0.03% in series [5] (10 μM test compound). Also, in series [6], the “% degradation in 24 h when incubated with simulated intestinal fluid” value (shortened to “% degradation … with simulated intestinal fluid”) is 00%.

For `CCc1cc(OC)ccc1-c1ccc(CC(NC(=O)[C@H](CC(=O)O)NC(=O)[C@H](CO)NC(=O)[C@@H](NC(=O)C(C)(Cc2ccccc2F)NC(=O)[C@@H](NC(=O)CNC(=O)[C@H](CCC(N)=O)NC(=O)C(C)(C)NC(=O)[C@@H](N)Cc2c[nH]cn2)[C@@H](C)O)[C@@H](C)O)C(=O)NC(Cc2ccc(-c3ccccc3C(F)(F)F)cc2)C(N)=O)cc1` (single isomer, unassigned) [compound 32], the “% degradation … with simulated gastric fluid” value in series [1] is 00%. Besides, the half-life in series [1], in series [2], in series [3] and in series [6] was greater than 24 h each time. Further, in series [2], the “% degradation … with DPP-IV enzyme” value came out at 00%. Moreover, the “% degradation … with human plasma” value in series [3] was 00%. For the same compound, in series [4], the “half-life (t1/2) with liver microsomes” value is “(5) h”. For the same compound, the “% degradation … with liver microsomes” value in series [4] is given as 32%. Also, the “Human GLP-1 R activity (cAMP release), % activity with respect to control” value in series [5] (1 nM test compound) was 99 ± 0.06%; in series [5] (10 nM test compound), 99 ± 0.06%; in series [5] (100 nM test compound) it was 99 ± 0.08%; in series [5] (1 μM test compound) it was 99 ± 0.10%; in series [5] (10 μM test compound) it was 99 ± 0.12%. Also, the “% degradation … with simulated intestinal fluid” value in series [6] is 00%.

On to `CCc1cc(OC)ccc1-c1ccc(CC(NC(=O)[C@H](CC(=O)O)NC(=O)[C@H](CO)NC(=O)[C@@H](NC(=O)C(C)(Cc2ccccc2F)NC(=O)[C@@H](NC(=O)CNC(=O)[C@H](CCC(N)=O)NC(=O)C2(NC(=O)[C@@H](N)Cc3c[nH]cn3)CC2)[C@@H](C)O)[C@@H](C)O)C(=O)NC(Cc2ccc(-c3ccccc3C)cc2)C(N)=O)cc1` (single isomer, unassigned) [compound 33], for which the “% degradation … with simulated gastric fluid” value in series [1] was 00%. Also, the half-life in series [1], in series [2], in series [3] and in series [6] was greater than 24 h in each case. Further, in series [2], the “% degradation … with DPP-IV enzyme” value worked out at 00%. In series [3], the “% degradation … with human plasma” value was 00%. In addition, the “half-life (t1/2) with liver microsomes” value in series [4] is reported as “(5) h”. The “% degradation … with liver microsomes” value in series [4] was 33%. Also, the “Human GLP-1 R activity (cAMP release), % activity with respect to control” value in series [5] (1 nM test compound) was 99 ± 0.11%; in series [5] (10 nM test compound) it was 99 ± 0.13%; in series [5] (100 nM test compound), 99 ± 0.16%; in series [5] (1 μM test compound), 99 ± 0.06%; in series [5] (10 μM test compound) it was 99 ± 0.10%. Further, the “% degradation … with simulated intestinal fluid” value in series [6] is 00%.

`CCc1cc(OC)ccc1-c1ccc(CC(NC(=O)[C@H](CC(=O)O)NC(=O)[C@H](CO)NC(=O)[C@@H](NC(=O)C(C)(Cc2ccccc2F)NC(=O)[C@@H](NC(=O)CNC(=O)[C@H](CCC(N)=O)NC(=O)C2(NC(=O)[C@@H](N)Cc3c[nH]cn3)CC2)[C@@H](C)O)[C@@H](C)O)C(=O)NC(Cc2ccc(-c3ccccc3C)nc2)C(N)=O)cc1` (single isomer, unassigned) [compound 34]: the “% degradation … with simulated gastric fluid” value in series [1] is 00%. Further, the half-life in series [1], in series [2], in series [3] and in series [6] was greater than 24 h each time. Further, in series [2], the “% degradation … with DPP-IV enzyme” value was 00%. Further, the “% degradation … with human plasma” value in series [3] was found to be 00%. The “half-life (t1/2) with liver microsomes” value in series [4] is reported as “(5) h”. Moreover, the “% degradation … with liver microsomes” value in series [4] came out at 32%. In addition, the “Human GLP-1 R activity (cAMP release), % activity with respect to control” value in series [5] (1 nM test compound) is 99 ± 0.12%; in series [5] (10 nM test compound), 99 ± 0.08%; in series [5] (100 nM test compound) it was 99 ± 0.11%; in series [5] (1 μM test compound), 99 ± 0.12%; in series [5] (10 μM test compound), 99 ± 0.16%. Besides, in series [6], the “% degradation … with simulated intestinal fluid” value is on record as 00%.

On to `CCc1cc(OC)ccc1-c1ccc(CC(NC(=O)[C@H](CC(=O)O)NC(=O)[C@H](CO)NC(=O)[C@@H](NC(=O)C(C)(Cc2ccccc2F)NC(=O)[C@@H](NC(=O)CNC(=O)[C@H](CCC(N)=O)NC(=O)C2(NC(=O)[C@@H](N)Cc3c[nH]cn3)CC2)[C@@H](C)O)[C@@H](C)O)C(=O)NC(Cc2ccc(-c3ccccc3F)cc2)C(N)=O)cc1` (single isomer, unassigned) [compound 35], for which the “% degradation … with simulated gastric fluid” value in series [1] is 00%. Further, the half-life in series [1], in series [2], in series [3] and in series [6] was greater than 24 h each time. Moreover, the “% degradation … with DPP-IV enzyme” value in series [2] is reported as 00%. Also, in series [3], the “% degradation … with human plasma” value came out at 00%. In series [4], the “half-life (t1/2) with liver microsomes” value is given as “(5) h”. For the same compound, the “% degradation … with liver microsomes” value in series [4] is given as 26%. Also, the “Human GLP-1 R activity (cAMP release), % activity with respect to control” value in series [5] (1 nM test compound) worked out at 99 ± 0.02%; in series [5] (10 nM test compound), 99 ± 0.26%; in series [5] (100 nM test compound), 99 ± 0.31%; in series [5] (1 μM test compound), 99 ± 0.60%; in series [5] (10 μM test compound) it was 99 ± 0.08%. Also, the “% degradation … with simulated intestinal fluid” value in series [6] is recorded as 00%.
